Test results from ChEMBL document CHEMBL5728748 (2021).
pIC50: −log10 of the molar value.

assay: TarO Biochemical Enzymatic Assay: The TarO biochemical enzymatic assay is a liquid chromatography-mass spectroscopy (LC-MS) based end point assay that measures C55-P-P-GlcNAc (LIPID III) production. The TarO biochemical enzymatic assay was performed in a 384-well microtiter plate (Labcyte) with a reaction volume of 20 μl. The reaction mix contained 0.1 μgs/μl of TarO membrane preparation derived from MRSA COL (lysostaphin/lysozyme treated, centrifuged at 40K rpm, and re-suspended in 50 mM Tris pH 7.5, 10 mM MgCl2), 1500 μM UDP-GlcNAc, x 75 μM C55-P substrates in 83 mM Tris pH 8.0, 6.7 mM MgCl2, 6 mM CHAPS, and 8.3% DMSO buffer. The enzyme reactions were quenched by extraction in 40 μl of 1-pentanol containing 0.04 μM […] C55-PP-GlcNAc, which was used as an internal standard. A 10 μl volume of the quenched reaction mixture (pH≈3) from each well was injected onto a reversed-phase column (C4, 5 m, 2.1×50 mm, Thermo Scientific Biobacis-4) and eluted using a NH4Ac/H2O/MeOH gradient (solvent A: 10 mM NH4Ac in water, pH 5.6; solvent B: NH4Ac (1 M)-Isopropanol (1:90, v/v, pH 5.6). The HPLC conditions were as follows: 15% solvent B for 15 seconds followed by a gradient to 90% solvent B in 90 seconds; then solvent B was kept at 95% for 10 seconds followed by a gradient to 8% solvent B in 0.1 minute. The column was then equilibrated at 15% B for 1 minute before the next injection. The flow rate was kept constant at 600 μl/minute. Mass spectrometric detection was carried out in the negative-ion mode using selected reaction monitoring (SRM). Typical mass spectrometric conditions were as follows: heated capillary temperature, 210° C.; spray voltage, 2500 V; desolvation gas (N2), 40 l/h; auxiliary gas (N2), 35 l/h. Selected ion current (SIC) chromatograms of C55-PP-GlcNAc and internal standard 15C C55-PP-GlcNAc were plotted and integrated using LCQuan incorporated in Xcalibur software (ThermoFinnigan). The linearity of C55-PP-GlcNAc concentration versus mass spectrometric signal (AC55-PP-GlcNAc/A15C-C55-PP-GlcNAc) was determined with purified C55-PP-GlcNAc. The IC50 values were calculated using the nonlinear regression analysis (sigmoidal dose response fit allowing for a variable slope) of percent inhibition data with minimum and maximum values set to 0 and 100 percent.

SMILES | pIC50
C[C@H]1[C@@H](c2cc(F)cc(C(F)(F)F)c2)OC(=O)N1C(=O)NCc1ccccc1Cl | 6.77
C[C@H]1[C@@H](c2cc(F)cc(C(F)(F)F)c2)OC(=O)N1C(=O)NCc1ccnc2cccnc12 | 6.27
Cc1cccnc1CNC(=O)N1C(=O)O[C@H](c2cc(C(F)(F)F)cc(C(F)(F)F)c2)[C@@H]1C | 6.36
C[C@H]1[C@@H](c2cc(F)cc(C(F)(F)F)c2)OC(=O)N1C(=O)NCc1ccnc2ccccc12 | 6.70
C[C@H]1[C@@H](c2cc(C(F)(F)F)cc(C(F)(F)F)c2)OC(=O)N1C(=O)NCc1cccc2ccnn12 | 8.00
C[C@H]1[C@@H](c2cc(F)cc(C(F)(F)F)c2)OC(=O)N1C(=O)NCc1cccc2c1C(=O)NC2 | 5.77
COc1cc([C@H]2OC(=O)N(C(=O)NCc3cncc4ccccc34)[C@H]2CO)cc(C(F)(F)F)c1 | 6.70
C[C@H]1[C@@H](c2cc(F)cc(C(F)(F)F)c2)OC(=O)N1C(=O)NCc1cccc2nccnc12 | 6.72
C[C@H]1[C@@H](c2cc(F)cc(C(F)(F)F)c2)OC(=O)N1C(=O)NCc1cnc2sccn12 | 4.11
Cc1nc(C(C)C)sc1CNC(=O)N1C(=O)O[C@H](c2cc(F)cc(C(F)(F)F)c2)[C@@H]1C | 6.80
O=C(NCc1cccc2cncnc12)N1C(=O)O[C@H](c2cc(C(F)(F)F)cc(C(F)(F)F)c2)[C@@H]1CO | 7.10
C[C@H]1[C@@H](c2cc(C(F)(F)F)ccn2)OC(=O)N1C(=O)CCc1cncc2ccccc12 | 5.16
C[C@H]1[C@@H](c2cc(F)cc(C(F)(F)F)c2)OC(=O)N1C(=O)NCc1nccc2sccc12 | 6.92
C=CCOc1cc([C@H]2OC(=O)N(C(=O)NCc3cncc4ccccc34)[C@H]2C)nc(C(F)(F)F)c1 | 7.22
C[C@H]1[C@@H](c2cc(C(F)(F)F)cc(C(F)(F)F)c2)OC(=O)N1C(=O)NCc1nccc2ccoc12 | 6.82
C[C@H]1[C@@H](c2cc(C(F)(F)F)cc(C(F)(F)F)c2)OC(=O)N1C(=O)NCc1ncccc1Br | 6.59
C[C@H]1[C@@H](c2cc(F)cc(C(F)(F)F)c2)OC(=O)N1C(=O)CCc1cncc2ccccc12 | 7.10
Cc1cc([C@H]2OC(=O)N(C(=O)CCc3cccc4cnccc34)[C@H]2C)cc(C(F)(F)F)c1 | 6.60
C[C@H]1[C@@H](c2cc(C(F)(F)F)cc(C(F)(F)F)c2)OC(=O)N1C(=O)COc1cccc2ccccc12 | 7.40
Cc1nc(C)c(CNC(=O)N2C(=O)O[C@H](c3cc(F)cc(C(F)(F)F)c3)[C@@H]2C)s1 | 5.58
C[C@H]1[C@@H](c2cc(C(F)(F)F)cc(C(F)(F)F)c2)OC(=O)N1C(=O)NCc1cccc2nccnc12 | 7.30
Cc1ccccc1CNC(=O)N1C(=O)O[C@H](c2cc(F)cc(C(F)(F)F)c2)[C@@H]1C | 6.85
COc1ccncc1CNC(=O)N1C(=O)O[C@H](c2cc(C(F)(F)F)cc(C(F)(F)F)c2)[C@@H]1CO | 6.70
COc1cc(C(F)(F)F)cc([C@H]2OC(=O)N(C(=O)NCc3cncc4cccnc34)[C@H]2CO)n1 | 6.06
C[C@H]1[C@@H](c2cccc(OC(F)(F)F)c2)OC(=O)N1C(=O)CCc1cncc2ccccc12 | 6.85

SMILES | pIC50
C[C@H]1[C@@H](c2cc(C(F)(F)F)cc(C(F)(F)F)c2)OC(=O)N1C(=O)CCc1cccc2ccncc12 | 6.39
C[C@H]1[C@@H](c2cc(F)cc(C(F)(F)F)c2)OC(=O)N1C(=O)N(O)Cc1cccc2ccccc12 | 5.11
C[C@H]1[C@@H](c2ccc(F)c(F)c2)OC(=O)N1C(=O)CCc1cncc2ccccc12 | 5.33
C[C@H]1[C@@H](c2cc(F)cc(C(F)(F)F)c2)OC(=O)N1C(=O)NCc1ccccc1CN(C)C | 6.16
COc1cccc([C@H]2OC(=O)N(C(=O)CCc3cncc4ccccc34)[C@H]2C)c1 | 5.92
C[C@H]1[C@@H](c2cc(F)c(F)c(F)c2)OC(=O)N1C(=O)CCc1cncc2ccccc12 | 5.74
COc1ccccc1CNC(=O)N1C(=O)O[C@H](c2cc(F)cc(C(F)(F)F)c2)[C@@H]1C | 7.52
C[C@H]1[C@@H](c2cc(C(F)(F)F)cc(C(F)(F)F)c2)OC(=O)N1C(=O)NCc1cncc2cccnc12 | 8.00
C[C@H]1[C@@H](c2cc(F)cc(C(F)(F)F)c2)OC(=O)N1C(=O)NCc1ccccc1OC(F)F | 7.70
CCOc1cc([C@H]2OC(=O)N(C(=O)NCc3cccc4cncnc34)[C@H]2C)nc(C(F)(F)F)c1 | 8.00
C[C@H]1[C@@H](c2cc(F)cc(C(F)(F)F)c2)OC(=O)N1C(=O)NCc1ccccc1[N+](=O)[O-] | 8.00
C[C@H]1[C@@H](c2cc(C(F)(F)F)cc(C(F)(F)F)c2)OC(=O)N1C(=O)NCc1cccc2c1OCCO2 | 8.00
C[C@H]1[C@@H](c2cccc(OC(F)(F)F)c2)OC(=O)N1C(=O)CCc1cccc2ccccc12 | 7.40
Cc1cc(C)cc([C@H]2OC(=O)N(C(=O)CCc3cncc4ccccc34)[C@H]2C)c1 | 5.97
C[C@H]1[C@@H](c2cc(F)cc(C(F)(F)F)c2)OC(=O)N1C(=O)NCc1ccccc1C(F)(F)F | 7.52
COc1cc([C@H]2OC(=O)N(C(=O)NCc3cccc4cncnc34)[C@H]2CO)cc(C(F)(F)F)c1 | 6.06
C[C@H]1[C@@H](c2cc(F)cc(C(F)(F)F)c2)OC(=O)N1C(=O)NCc1cccc2ncccc12 | 6.07
C[C@H]1[C@@H](c2cc(F)cc(C3CC3)c2)OC(=O)N1C(=O)NCc1cncc2ccccc12 | 6.62
COc1cc([C@H]2OC(=O)N(C(=O)NCc3cncc4cccnc34)[C@H]2CO)cc(C(F)(F)F)c1 | 5.91
C[C@H]1[C@@H](c2cccc(F)c2)OC(=O)N1C(=O)CCc1cncc2ccccc12 | 5.52
CCOc1ccccc1CNC(=O)N1C(=O)O[C@H](c2cc(F)cc(C(F)(F)F)c2)[C@@H]1C | 7.00
COc1cccc([C@H]2OC(=O)N(C(=O)CCc3cccc4ccccc34)[C@H]2C)n1 | 5.52
C[C@H]1[C@@H](c2cc(F)cc(C(F)(F)F)c2)OC(=O)N1C(=O)NCc1cccc2cn[nH]c12 | 5.85
O=C(NCc1cncc2ccccc12)N1C(=O)O[C@H](c2cc(F)cc(C(F)(F)F)c2)[C@@H]1CCO | 5.32
C[C@H]1[C@@H](c2cc(F)cc(C(F)(F)F)c2)OC(=O)N1C(=O)NCc1cccc2ccccc12 | 7.70

SMILES | pIC50
C[C@H]1[C@@H](c2cc(F)cc(C(F)(F)F)c2)OC(=O)N1C(=O)NCc1ccccc1S(C)(=O)=O | 5.53
C[C@H]1[C@@H](c2cc(C(F)(F)F)cc(C(F)(F)F)c2)OC(=O)N1C(=O)NCc1cccnc1N1CCOCC1 | 5.44
C[C@H]1[C@@H](c2cc(N3CCC(F)(F)C3)cc(C(F)(F)F)c2)OC(=O)N1C(=O)NCc1cccc2cncnc12 | 6.59
C[C@H]1[C@@H](c2cc(C(F)(F)F)cc(C(F)(F)F)c2)OC(=O)N1C(=O)CCc1cccc2ncccc12 | 6.60
C[C@H]1[C@@H](c2cc(C(F)(F)F)cc(C(F)(F)F)c2)OC(=O)N1C(=O)NCC1CCCc2ccccc21 (stereo not given in full) | 6.80
COc1cccnc1CNC(=O)N1C(=O)O[C@H](c2cc(C(F)(F)F)cc(C(F)(F)F)c2)[C@@H]1C | 6.04
C[C@H]1[C@@H](c2cccc(C(F)(F)F)c2)OC(=O)N1C(=O)NCc1cncc2cccnc12 | 6.89
COc1cc([C@H]2OC(=O)N(C(=O)NCc3cccc4nccnc34)[C@H]2CO)cc(C(F)(F)F)c1 | 6.35
C[C@H]1[C@@H](c2cc(C(F)(F)F)cc(C(F)(F)F)c2)OC(=O)N1C(=O)NCc1cncc2ccccc12 | 7.52
Cc1cccc(OCC(=O)N2C(=O)O[C@H](c3cccc(C(F)(F)F)c3)[C@@H]2C)c1C | 6.17
COc1cc(C(F)(F)F)nc([C@@H]2OC(=O)N(C(=O)NCc3cncc4ccccc34)[C@H]2C)n1 | 5.66
C[C@H]1CN(C(=O)NCc2cncc3ccccc23)C(=O)O[C@@H]1c1cc(C(F)(F)F)cc(C(F)(F)F)c1 (single isomer, unassigned) | 7.52
C[C@H]1[C@@H](c2cc(C(F)(F)F)cc(C(F)(F)F)c2)OC(=O)N1C(=O)CCc1cccc2ccccc12 | 8.00
C[C@H]1[C@@H](c2cc(F)cc(C(F)(F)F)c2)OC(=O)N1C(=O)NCc1cncc2ccccc12 | 8.00
COc1cncc(CNC(=O)N2C(=O)O[C@H](c3cc(C(F)(F)F)cc(C(F)(F)F)c3)[C@@H]2CO)c1OC | 7.52
O=C(NCc1cncc2cccnc12)N1C(=O)O[C@H](c2cc(C(F)(F)F)cc(C(F)(F)F)c2)[C@@H]1CO | 6.85
C[C@H]1[C@@H](c2cc(F)cc(Br)c2)OC(=O)N1C(=O)NCc1cncc2ccccc12 | 6.62
C[C@H]1[C@@H](c2cccc(Br)n2)OC(=O)N1C(=O)CCc1cccc2ccccc12 | 6.32
C[C@H]1[C@@H](c2cccc(C(F)(F)F)c2)OC(=O)N1C(=O)NCc1cncc2ccccc12 | 6.80
C[C@H]1[C@@H](c2cc(F)cc(C(F)(F)F)c2)OC(=O)N1C(=O)NCc1ccccc1-n1cccc1 | 6.35
Cc1ccc2c(n1)N(CCC(=O)N1C(=O)O[C@H](c3cc(F)cc(C(F)(F)F)c3)[C@@H]1C)CCO2 | 6.62
C[C@H]1[C@@H](c2cc(C(F)(F)F)cc(C(F)(F)F)c2)OC(=O)N1C(=O)CCc1cncc2ccccc12 | 8.00
C[C@H]1[C@@H](c2cc(F)cc(C(F)(F)F)c2)OC(=O)N1C(=O)NCc1cccc2cncnc12 | 6.47
C[C@H]1[C@@H](c2cc(N(C)C)cc(C(F)(F)F)c2)OC(=O)N1C(=O)NCc1cncc2ccccc12 | 7.52
C[C@H]1[C@@H](c2cccc(C(F)F)c2)OC(=O)N1C(=O)NCc1cncc2ccccc12 | 6.31
